Test results as given in patent publication US20250326726A1, “FERROPTOSIS INHIBITORS-PHENOXAZINE ACETAMIDES” (SIRONAX (BEIJING) CO., LTD., priority 2023, published 2025).

System: HT-1080 cells
Assay: RSL3-induced HT-1080 cells ferroptosis assay (10% FBS)
Type: cell-based

5-(dimethylamino)-N-((8-(trifluoromethyl)-10H-phenoxazin-3-yl)methyl)pentanamide [Compound 57]
Bioactivity (RSL3-induced HT-1080 cells ferroptosis assay (10% FBS)): 1 to 100 nM
